Measurements published in patent US7985771B2, “Furanone derivatives” (Monsanto Technology LLC, priority 2002, dated 2011).

Tests used:
[1] = test system: IL-1beta release from a mouse microglial cell line; experiment: Interleukin-1 beta microglial cell assay; assay type: cell-based; details: LPS and IFN gamma stimulation, 24 hours, read-out: inhibition of IL-1beta induction, EC50
Procedure: This assay measures the release of IL-1β from a mouse microglial cell line following an inflammatory challenge with LPS and interferon-gamma. The ability of test articles to inhibit microglial cell activation and IL-1beta release is determined by co-incubation of the test article with the inflammatory challenge. Cytokine release is measured using a mouse IL-1β ELISA and cell toxicity is determined using Cell Tracker Green (a fluorescent dye that measures cell viability).
Mouse microglial cells were seeded in poly-D-lysine coated 96-well plates at a density of 10,000 cells/well and allowed to attach for 24 hours. Cells were stimulated by addition of LPS (10 μg/ml) and IFN gamma (10 ng/ml) in the presence or absence of test article. The cells were then incubated for 24 hours at 37° C., after which time the media was removed and used for cytokine determination as described below.
Viability of mouse microglial cells after exposure to the test article was determined using a fluorescent viability dye, Cell Tracker Green. Cell Tracker Green was used at a working concentration of 5 μM in 1× HBSS. Cells were washed once with HBSS (200 μl/well) and 100 μl Cell Tracker Green was added to each well. Cells were then incubated at 37° C. for 30 minutes, after which time the Cell Tracker was removed and the cells were washed once with HBSS (200 μl/well). 100 μl fresh HBSS was added to each well and the plate was read on a Fluoroskan plate reader using an excitation wavelength of 485 nm and an emission wavelength of 538 nm.
1. The IL-1β capture antibody was reconstituted in 1 ml of PBS to give a final concentration of 720 μg/ml, and the working concentration was 4 μg/ml. For coating one 96-well plate (at 100 μl/well) 56 μl of the 720 μg/ml stock was diluted into 10 ml of PBS. 2. The IL-1β standards were reconstituted in 0.5 ml of Reagent Diluent (70 ng/ml). For a high standard of 1 ng/ml (2 wells at 100 μl each+enough for series dilution) 7.1 μl of the 70 ng/ml standard were diluted into 0.5 ml of Reagent Diluent 3. The IL-1β detection antibody was reconstituted in 1 ml of Reagent Diluent to give a final concentration of 18 μg/ml and the working concentration is 100 ng/ml. For one 96-well plate (at 100 μl/well) 56 μl of the 18 μg/ml stock was diluted into 10 ml of Reagent Diluent.
1. The Costar EIA Hi-binding plate was coated with capture antibody at 4 μg/ml. Each well was coated with 100 μl, and the plate was sealed and incubated overnight at room temperature.
2. Each well was aspirated and washed 3× with Wash Buffer. Each well was filled to the top, dispensed, and any remaining buffer was removed by inverting the plate and gently blotting against clean paper towels.
3. Non-specific binding sites were blocked by adding 300 μl of Blocking Buffer to each well, and after sealing incubating for at least 1 hour at room temperature.
5. 100 μl of either standard or sample were added in each well of the capture-coated and pre-blocked plate. The plate was sealed and incubated for 2 hours at room temperature, followed with washing as in step 2.
6. 100 μl of the detection antibody ([…]) were added to each well.
7. The plate was sealed and incubated at room temperature for 2 hours, followed with washing as in step 2.
8. 100 μl of the working dilution of Streptavidin-HRP was added, and the plate was sealed and incubated in the dark for 20 minutes at room temperature, followed with washing as in Step 2.
9. The fresh Substrate Solution was prepared by mixing Color Reagent A (H2O2) and Color Reagent B (Tetramethylbenzidine) in a 1:1 ratio. 100 μl of this Substrate Solution mixture was added to each well and the plate was incubated in the dark for 20 minutes at room temperature. 10. 50 μl of Stop Solution was added to each well, mixing was ensured by gently tapping. 11. Each plate was read with the Spectramax once at 450 nm. Results

[2] = test system: ELAM (E-selectin) expression in endothelial cells; experiment: E-selectin (ELAM) cell inflammation assay; assay type: cell-based; details: LPS and IL-1β stimulation, read-out: reduction of expression of ELAM, EC50
Procedure: Endothelial-Leukocyte Adhesion Molecule (ELAM), also known as E-selectin, is expressed on the surface of endothelial cells. In this assay, lipopolysaccharide (LPS) and IL-1β are used to stimulate the expression of ELAM; test agents are tested for their abilities to reduce this expression, in accordance with studies showing that reduction of leukocyte adhesion to endothelial cell surface is associated with decreased cellular damage (e.g., Takada, M., Et al., Transplantation 64: 1520-25, 1997; Steinberg, J. B., et al., J. Heart Lung Trans. 13:306-313, 1994).
Endothelial cells may be selected from any of a number of sources and cultured according to methods known in the art; including, for example, coronary artery endothelial cells, human brain microvascular endothelial cells (HBMEC; Hess, D.C., et al., Neurosci. Left. 213(1): 37-40, 1996), or lung endothelial cells. Cells are conveniently cultured in 96-well plates. Cells are stimulated by adding a solution to each well containing 10 μg/ml LPS and 100 pg/ml IL-1β for 6 hours in the presence of test agent (specific concentrations and time may be adjusted depending on the cell type). Treatment buffer is removed and replaced with pre-warmed Fixing Solution® (100 μl/well) for 25 minutes at room temperature. Cells are then washed 3×, then incubated with Blocking Buffer (PBS+2% FBS) for 25 minutes at room temperature. Blocking Buffer containing Monoclonal E-Selectin Antibody (1:750, Sigma Catalog #S-9555) is added to each well. Plates are sealed and stored at 4° overnight. Plates are washed 4× with 160 μL Blocking Buffer per well. Second Antibody-HRP diluted 1:5000 in Blocking Buffer is then added (100 μL/well), and plates are incubated at room temperature (protected from light) for two hours. Plates are then washed 4× with Blocking Buffer before addition of 100 μL of ABTS Substrate solution at room temperature (Zymed, Catalog #00-2024). Wells are allowed to develop for 35 minutes, before measurement at 402 nm in a Fluoroskan® Reader with shake program for 10 seconds. Positive results are recorded as a decrease in ELAM concentration in tested wells, as compared to control wells.

| SMILES | EC50 [1] | EC50 [2] |
| --- | --- | --- |
| CCOC(=O)C1(CSc2nccc(C(F)(F)F)n2)OC(=O)C(O)=C1Sc1nccc(C(F)(F)F)n1 (centres unmarked) [4-Hydroxy-5-oxo-3-(4-trifluoromethyl-pyrimidin-2-ylsulfanyl)-2-(4-trifluoromethyl-pyrimidin-2-ylsulfanylmethyl)-2,5-dihydro-furan-2-carboxylic acid ethyl ester] | ≤ 20 µM | ≤ 30 µM |
| CCOC(=O)C1(CSC2CCCCC2)OC(=O)C(O)=C1SC1CCCCC1 (centres unmarked) [3-Cyclohexylsulfanyl-2-cyclohexylsulfanylmethyl-4-hydroxy-5-oxo-2,5-dihydro-furan-2-carboxylic acid ethyl ester] | ≤ 20 µM | ≤ 30 µM |
| CCOC(=O)C1(C(=O)OCC)OC(=O)C(O)=C1SCc1ccc(F)cc1 [3-(4-Fluoro-benzylsulfanyl)-4-hydroxy-5-oxo-5H-furan-2,2-dicarboxylic acid diethyl ester] | ≤ 20 µM | ≤ 30 µM |
| CCOC(=O)C1(CSc2nc3ccccc3n2C)OC(=O)C(O)=C1Sc1nc2ccccc2n1C (centres unmarked) [4-Hydroxy-3-(1-methyl-1H-benzoimidazol-2-ylsulfanyl)-2-(1-methyl-1H-benzoimidazol-2-ylsulfanylmethyl)-5-oxo-2,5-dihydro-furan-2-carboxylic acid ethyl ester] | ≤ 20 µM | ≤ 30 µM |
| CCOC(=O)C1(CSc2nc3cc(OC)ccc3s2)OC(=O)C(O)=C1Sc1nc2cc(OC)ccc2s1 (centres unmarked) [4-Hydroxy-3-(5-methoxy-benzothiazol-2-ylsulfanyl)-2-(5-methoxy-benzothiazol-2-ylsulfanylmethyl)-5-oxo-2,5-dihydro-furan-2-carboxylic acid ethyl ester] | ≤ 20 µM | ≤ 30 µM |
| CCOC(=O)C1(CSc2nc3ccccc3s2)OC(=O)C(O)=C1Sc1nc2ccccc2s1 (centres unmarked) [3-(Benzothiazol-2-ylsulfanyl)-2-(benzothiazol-2-ylsulfanylmethyl)-4-hydroxy-5-oxo-2,5-dihydro-furan-2-carboxylic acid ethyl ester] | ≤ 20 µM | ≤ 30 µM |

Other lines, results leading:

| EC50 [1] | EC50 [2] | SMILES |
| --- | --- | --- |
| ≤ 20 µM | ≤ 30 µM | CCOC(=O)C1(CSCc2ccccc2)OC(=O)C(O)=C1SCc1ccccc1 (centres unmarked) [3-Benzylsulfanyl-2-benzylsulfanylmethyl-4-hydroxy-5-oxo-2,5-dihydro-furan-2-carboxylic acid ethyl ester] |
| ≤ 20 µM | ≤ 30 µM | CCOC(=O)C1(C[S+]([O-])Cc2ccco2)OC(=O)C(O)=C1[S+]([O-])Cc1ccco1 (centres unmarked) [3-(Furan-2-ylmethanesulfinyl)-2-(furan-2-ylmethanesulfinylmethyl)-4-hydroxy-5-oxo-2,5-dihydro-furan-2-carboxylic acid ethyl ester] |
| ≤ 20 µM | ≤ 30 µM | CCOC(=O)C1(CSCc2ccco2)OC(=O)C(OC(=O)C(C)C)=C1SCc1ccco1 (centres unmarked) [3-(Furan-2-ylmethylsulfanyl)-2-(furan-2-ylmethylsulfanylmethyl)-4-isobutyryloxy-5-oxo-2,5-dihydro-furan-2-carboxylic acid ethyl ester] |
| ≤ 20 µM | ≤ 30 µM | CCOC(=O)C1(CSCc2ccc(Cl)cc2Cl)OC(=O)C(O)=C1SCc1ccc(Cl)cc1Cl (centres unmarked) [3-(2,4-Dichloro-benzylsulfanyl)-2-(2,4-dichloro-benzylsulfanylmethyl)-4-hydroxy-5-oxo-2,5-dihydro-furan-2-carboxylic acid ethyl ester] |
